Results taken from patent publication US20150133426A1, “SUBSTITUTED PYRROLOPYRIMIDINES” (BAYER PHARMA AKTIENGESELLSCHAFT, priority 2012, published 2015).

target: T1, human full-length MKNK1 (Homo sapiens, UniProt Q9BUB5, T385D); experiment: MKNK1 kinase high ATP assay (TR-FRET); type: biochemical; conditions: high ATP (2 mM), 15 min preincubation with enzyme, GST-MKNK1 (T344D)
T1 construct: purchased Carna Biosciences 02-145; host or cells: insect cells, baculovirus expression system
Method in brief: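 GST-tagged full-length human MKNK1 (aa 1-424, T344D), baculovirus-expressed, preincubated 15 min with compound, then reacted 30 min at 22 °C with 2 mM ATP and 0.06 µM biotinylated peptide (final).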

T1 sequence (Q9BUB5 1-424 isoform Q9BUB5-2 T344D): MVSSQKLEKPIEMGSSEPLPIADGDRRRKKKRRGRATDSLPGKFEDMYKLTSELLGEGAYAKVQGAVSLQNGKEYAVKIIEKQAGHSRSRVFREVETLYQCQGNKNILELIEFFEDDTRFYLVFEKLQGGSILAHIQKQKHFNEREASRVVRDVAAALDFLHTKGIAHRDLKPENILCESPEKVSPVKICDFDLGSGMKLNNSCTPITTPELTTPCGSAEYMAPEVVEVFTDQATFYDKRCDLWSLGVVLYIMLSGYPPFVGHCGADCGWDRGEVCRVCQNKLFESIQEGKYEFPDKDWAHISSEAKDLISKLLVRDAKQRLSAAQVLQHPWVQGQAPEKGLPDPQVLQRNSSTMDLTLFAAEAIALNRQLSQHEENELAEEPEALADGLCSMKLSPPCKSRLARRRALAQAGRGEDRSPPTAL

Going from `c1ccc(N2CCOCC2)c(Nc2ncnc3[nH]c4c(c23)CCCC4)c1` [Example 118] to `CC(C)Oc1cc(F)ccc1Nc1ncnc2[nH]c3c(c12)CCCCC3` [Example 4, N-(4-Fluoro-2-isopropoxyphenyl)-5,6,7,8,9,10-hexahydrocyclohepta[4,5]pyrrolo[2,3-d]pyrimidin-4-amine], the IC50 falls from no less than 20000 nM to 258 nM. The second is the more potent here.

Compared with `CS(=O)(=O)CCCNC(=O)C1CCc2[nH]c3ncnc(Nc4cccc5c4CNC5=O)c3c2C1` (racemic) [Example 81, (RS)—N-[3-(Methylsulfonyl)propyl]-4-[(1-oxo-2,3-dihydro-1H-isoindol-4-yl)amino]-6,7,8,9-tetrahydro-5H-pyrimido[4,5-b]indole-6-carboxamide], `CS(=O)(=O)CCCNC(=O)C1CCc2[nH]c3ncnc(Nc4ccc5c(c4)C(=O)OC5)c3c2C1` (racemic) [Example 46, (RS)—N-[3-(Methylsulfonyl)propyl]-4-[(3-oxo-1,3-dihydro-2-benzofuran-5-yl)amino]-6,7,8,9-tetrahydro-5H-pyrimido[4,5-b]indole-6-carboxamide] is 1.8-fold higher in IC50: 1270 nM for the first, 2240 nM for the second. The first is the more potent here.

Compared with `CS(=O)(=O)CCCNC(=O)C1CCc2[nH]c3ncnc(Nc4ccc(S(N)(=O)=O)cc4)c3c2C1` (racemic) [Example 48, (RS)—N-[3-(Methylsulfonyl)propyl]-4-[(4-sulfamoylphenyl)amino]-6,7,8,9-tetrahydro-5H-pyrimido[4,5-b]indole-6-carboxamide], `CS(=O)(=O)CCCNC(=O)C1CCc2[nH]c3ncnc(Nc4ccc5c(c4)CS(=O)(=O)C5)c3c2C1` (racemic) [Example 40, (RS)-4-[(2,2-Dioxido-1,3-dihydro-2-benzothiophen-5-yl)amino]-N-[3-(methylsulfonyl)propyl]-6,7,8,9-tetrahydro-5H-pyrimido[4,5-b]indole-6-carboxamide] is 2.4-fold lower in IC50: 2840 nM for the first, 1160 nM for the second.

Compared with `COc1ccc(F)cc1Nc1ncnc2[nH]c3c(c12)CC(C(=O)Nc1ccccc1)CC3` (racemic) [Example 199, (RS)-4-[(5-Fluoro-2-methoxyphenyl)amino]-N-phenyl-6,7,8,9-tetrahydro-5H-pyrimido[4,5-b]indole-6-carboxamide], `COc1ccc(F)cc1Nc1ncnc2[nH]c3c(c12)CC(C(=O)O)CC3` (racemic) [Example 181, (RS)-4-[(5-Fluoro-2-methoxyphenyl)amino]-6,7,8,9-tetrahydro-5H-pyrimido[4,5-b]indole-6-carboxylic acid] is lower in IC50: no less than 20000 nM for the first, 1100 nM for the second. The second is the more potent here.

Compared with `CCOc1cc(Cl)ccc1Nc1ncnc2[nH]c3c(c12)CC(C(=O)NCCCS(C)(=O)=O)CC3` (racemic) [Example 165, (RS)-4-[(4-Chloro-2-ethoxyphenyl)amino]-N-[3-(methylsulfonyl)propyl]-6,7,8,9-tetrahydro-5H-pyrimido[4,5-b]indole-6-carboxamide], `CC(C)Oc1ccc(Cl)cc1Nc1ncnc2[nH]c3c(c12)CC(C(=O)NCCCS(C)(=O)=O)CC3` (racemic) [Example 150, (RS)-4-{[5-Chloro-2-(propan-2-yloxy)phenyl]amino}-N-[3-(methylsulfonyl)propyl]-6,7,8,9-tetrahydro-5H-pyrimido[4,5-b]indole-6-carboxamide] is 7.2-fold lower in IC50: 86 nM for the first, 12 nM for the second.

Compared with `CCNC(=O)C1CCc2[nH]c3ncnc(Nc4ccccc4OC4CCCC4)c3c2C1` (racemic) [Example 190, (RS)-4-{[2-(Cyclopentyloxy)phenyl]amino}-N-ethyl-6,7,8,9-tetrahydro-5H-pyrimido[4,5-b]indole-6-carboxamide], `COCC1(OC)CCc2[nH]c3ncnc(Nc4ccc(F)cc4OC4CCCC4)c3c2C1` (racemic) [Example 134] is 19-fold higher in IC50: 88 nM for the first, 1650 nM for the second.

First: COc1ccc(OC)c(Nc2ncnc3[nH]c4c(c23)CC(C(=O)NCCCS(C)(=O)=O)CC4)c1 (racemic) [Example 42, (RS)-4-[(2,5-Dimethoxyphenyl)amino]-N-[3-(methylsulfonyl)propyl]-6,7,8,9-tetrahydro-5H-pyrimido[4,5-b]indole-6-carboxamide]
Second: COc1cc(F)ccc1Nc1ncnc2[nH]c3c(c12)CC(C(=O)NCCCS(C)(=O)=O)CC3 (racemic) [Example 37, (RS)-4-[(4-Fluoro-2-methoxyphenyl)amino]-N-[3-(methylsulfonyl)propyl]-6,7,8,9-tetrahydro-5H-pyrimido[4,5-b]indole-6-carboxamide]
The IC50 of the first is 4.2-fold higher: 615 nM for the first, 145 nM for the second.

Compared with `COc1cc(Cl)c(Cl)cc1Nc1ncnc2[nH]c3c(c12)CC(C(=O)NCCCS(C)(=O)=O)CC3` (racemic) [Example 44, (RS)-4-[(4,5-Dichloro-2-methoxyphenyl)amino]-N-[3-(methylsulfonyl)propyl]-6,7,8,9-tetrahydro-5H-pyrimido[4,5-b]indole-6-carboxamide], `CS(=O)(=O)CCCNC(=O)C1CCc2[nH]c3ncnc(Nc4ccc(F)cc4OCCO)c3c2C1` (racemic) [Example 159, (RS)-4-{[4-Fluoro-2-(2-hydroxyethoxy)phenyl]amino}-N-[3-(methylsulfonyl)propyl]-6,7,8,9-tetrahydro-5H-pyrimido[4,5-b]indole-6-carboxamide] is 6-fold higher in IC50: 6 nM for the first, 36 nM for the second.

Going from `CS(=O)(=O)CCCNC(=O)C1CCc2[nH]c3ncnc(Nc4ccc5[nH]ncc5c4)c3c2C1` (racemic) [Example 14, (RS)-4-(1H-Indazol-5-ylamino)-N-[3-(methylsulfonyl)propyl]-6,7,8,9-tetrahydro-5H-pyrimido[4,5-b]indole-6-carboxamide] to `CS(=O)(=O)CCCNC(=O)C1CCc2[nH]c3ncnc(Nc4ccc5c(c4)COC5=O)c3c2C1` (racemic) [Example 45, (RS)—N-[3-(Methylsulfonyl)propyl]-4-[(1-oxo-1,3-dihydro-2-benzofuran-5-yl)amino]-6,7,8,9-tetrahydro-5H-pyrimido[4,5-b]indole-6-carboxamide], the IC50 rises from 8 nM to 82 nM (10-fold).

`COCC1(OC)CCc2[nH]c3ncnc(Nc4ccc5[nH]c(=O)sc5c4)c3c2C1` (racemic) [Example 138] and `COCC1(OC)CCc2[nH]c3ncnc(Nc4cc(Cl)ccc4OC(C)C)c3c2C1` (racemic) [Example 132] are within 1.5-fold of each other in IC50: 358 nM for the first, 503 nM for the second.

First: COc1cc2[nH]ncc2cc1Nc1ncnc2[nH]c3c(c12)CC(C(=O)NC(C)C)CC3 (racemic) [Example 216, (RS)-4-[(6-Methoxy-1H-indazol-5-yl)amino]-N-(propan-2-yl)-6,7,8,9-tetrahydro-5H-pyrimido[4,5-b]indole-6-carboxamide]
Second: COc1ccc(C(F)(F)F)cc1Nc1ncnc2[nH]c3c(c12)CC(C(=O)NC(C)C)CC3 (racemic) [Example 213, (RS)-4-{[2-Methoxy-5-(trifluoromethyl)phenyl]amino}-N-(propan-2-yl)-6,7,8,9-tetrahydro-5H-pyrimido[4,5-b]indole-6-carboxamide]
The IC50 of the first is 21-fold lower: 5 nM for the first, 103 nM for the second.

Compared with `c1nc(Nc2ccc3[nH]ncc3c2)c2c3c([nH]c2n1)CCCC3` [Example 2, N-(1H-Indazol-5-yl)-6,7,8,9-tetrahydro-5H-pyrimido[4,5-b]indol-4-amine], `O=S1(=O)CCc2[nH]c3ncnc(Nc4ccc5[nH]ncc5c4)c3c2C1` [Example 83, N-(1H-Indazol-5-yl)-5,7,8,9-tetrahydrothiopyrano[3′,4′:4,5]pyrrolo[2,3-d]pyrimidin-4-amine 6,6-dioxide] is 2.3-fold higher in IC50: 27 nM for the first, 62 nM for the second.

In the case of `O=C(NC1CC1)C1CCc2[nH]c3ncnc(Nc4ccc5[nH]ncc5c4)c3c2C1` (racemic) [Example 15, (RS)—N—Cyclopropyl-4-(1H-indazol-5-ylamino)-6,7,8,9-tetrahydro-5H-pyrimido[4,5-b]indole-6-carboxamide], the IC50 is reported as 19 nM.
